# Source: patent US10266806B2, “Stem cell-derived hepatocytes in co-culture and uses thereof” (Colorado State University Research Foundation, priority 2014, dated 2019)
# Where a name gives a salt, the structure may show the parent alone. Read-outs that look alike come from different tables or passages of the source.
# What was measured:
# [1] = test system: iHeps in iMPCCs
# [2] = test system: primary hepatocytes (HUM4011)
# [3] = total human plasma concentration; cited from earlier work
# [4] = test system: primary human hepatocytes in MPCCs; conditions: (ref 19), cited from earlier work; for TC50 in MPCCs ATP: concentration at which activity decreases by 50% of DMSO-only controls
# [5] = test system: iMPCCs
# [6] = negative number: withdrawn from the market; higher positive numbers: greater DILI concern; cited from earlier work
# [7] = test system: iHeps in iCCs
# [8] = test system: iHeps in iMPCCs; assay: Drug toxicity screening in iMPCCs (albumin, ATP, urea; binary decision and TC50)
Compound,Cmax [3],TC50 in MPCCs Albumin [4],TC50 in MPCCs Urea [4],TC50 in MPCCs ATP [4],other results
Nc1ccc(S(=O)(=O)c2ccc(N)cc2)cc1 [Dapsone],6010 nM,,,,Model predictions iMPCC (binary decision) [1]: −; toxicity call in iMPCCs / iHeps [1]: false negative result; toxicity call in another donor of primary hepatocytes [2]: false negative
NC(=O)NO [Hydroxyurea],794000 nM,28616.2 µM,19647.8 µM,7407.0 µM,"TC50 in MPCCs ATP ([1]; human, 6 days): 49358.3 µM; TC50 in MPCCs Albumin ([1]; human, 6 days): 18398.4 µM"
CC(=O)CC(c1ccccc1)c1c(O)c2ccccc2oc1=O (stereo not drawn) [Warfarin],4890 nM,,,,
CCN(CC)C(=O)/C(C#N)=C/c1cc(O)c(O)c([N+](=O)[O-])c1 [entacapone],,,,,"albumin secretions in iMPCCs, toxicity over time and dose [1]: time- and dose-dependent toxicities"
C#CC1(O)CC[C@H]2[C@@H]3CCC4=CC(=O)CC[C@@H]4[C@H]3CC[C@@]21CC (mixture of isomers) [Norgestrel],9 nM,,,,
COC(=O)Nc1nc2ccc(C(=O)c3ccccc3)cc2[nH]1 [Mebendazole],126 nM,11.6 µM,,11.5 µM,"TC50 in MPCCs Albumin ([1]; human, 6 days): 1.9 µM; TC50 in MPCCs Urea ([1]; human, 6 days): 2.3 µM"
Cc1c(C)c2c(c(C)c1O)CCC(C)(COc1ccc(CC3SC(=O)NC3=O)cc1)O2 (stereo not drawn) [Troglitazone],,,,,albumin production in iMPCCs [5]: declined significantly; urea production in iMPCCs [5]: declined significantly; DILI Sev (DILI severity scores from the LTKB of the FDA) [6]: −2
CCc1oc2ccccc2c1C(=O)c1cc(Br)c(O)c(Br)c1 [Benzbromarone],4360 nM,31.3 µM,27.9 µM,15.1 µM,DILI Sev (DILI severity scores from the LTKB of the FDA) [6]: −2
CC(=O)O[C@]1(C(C)=O)CC[C@H]2[C@@H]3C=C(Cl)C4=CC(=O)[C@@H]5C[C@@H]5[C@]4(C)[C@H]3CC[C@@]21C [Cyproterone acetate],656 nM,,41.0 µM,39.1 µM,"toxicity call in iMPCCs / iHeps [1]: toxic; TC50 in MPCCs Albumin ([1]; human, 6 days): 51.0 µM; TC50 in MPCCs Urea ([1]; human, 6 days): 33.1 µM; Model predictions iCC (binary decision) [7]: −; toxicity call in iCCs [7]: non-toxic"
O=c1n(CCCN2CCN(c3cccc(Cl)c3)CC2)nc2ccccn12 [Trazodone HCl],5060 nM,64.8 µM,121.8 µM,201.7 µM,"TC50 in MPCCs ATP ([1]; human, 6 days): 351.5 µM; TC50 in MPCCs Albumin ([1]; human, 6 days): 205.5 µM; TC50 in MPCCs Urea ([1]; human, 6 days): 272.4 µM"
O=C(O)Cc1ccccc1Nc1c(Cl)cccc1Cl [Diclofenac],,141.9 µM,206.2 µM,638.4 µM,
C=C[C@H]1C[N@@]2CC[C@H]1C[C@H]2[C@H](O)c1ccnc2ccc(OC)cc12 [Quinine],9250 nM,251.6 µM,285.2 µM,259.1 µM,"TC50 in MPCCs ATP ([1]; human, 6 days): 182.2 µM; TC50 in MPCCs Albumin ([1]; human, 6 days): 115.7 µM; TC50 in MPCCs Urea ([1]; human, 6 days): 127.9 µM"
Cn1cc[nH]c1=S [Methimazole],1870 nM,,,,
CC(C(=O)O)c1ccc(-c2ccccc2)c(F)c1 (stereo not drawn) [Flurbiprofen],57400 nM,2406.8 µM,2459.0 µM,3351.1 µM,"comparison of urea TC50 values, iHeps versus primary hepatocytes ([1]; human, 6 days): higher TC50 in iHeps; DILI Sev (DILI severity scores from the LTKB of the FDA) [6]: 3; TC50 in MPCCs Albumin [8]: 5683.4 µM"
C#C[C@]1(O)CC[C@H]2[C@@H]3CCC4=Cc5oncc5C[C@]4(C)[C@H]3CC[C@@]21C [Danazol],74 nM,,,,
Cc1ccc(N(CC2=NCCN2)c2cccc(O)c2)cc1 [Phentolamine mesylate],86 nM,,,,Model predictions iMPCC (binary decision) [1]: −
Clc1ccc(COC(Cn2ccnc2)c2ccc(Cl)cc2Cl)c(Cl)c1 (stereo not drawn) [Miconazole],24 nM,,,,Model predictions iMPCC (binary decision) [1]: −
C[C@]12C=CC(=O)C=C1CC[C@@H]1[C@@H]2C(=O)C[C@@]2(C)[C@H]1CC[C@]2(O)C(=O)CO [Prednisone],68 nM,,,,Model predictions iMPCC (binary decision) [1]: −
CN(CCOc1ccc(CC2SC(=O)NC2=O)cc1)c1ccccn1 (stereo not drawn) [Rosiglitazone],1120 nM,,,,
CNCCC=C1c2ccccc2CCc2ccccc21 [Nortriptyline HCl],122 nM,,,,DILI Sev (DILI severity scores from the LTKB of the FDA) [6]: 8
CNCCc1ccccn1.Cl.Cl [Betahistine 2HCl],4 nM,,,,Model predictions iMPCC (binary decision) [1]: −; DILI Sev (DILI severity scores from the LTKB of the FDA) [6]: 6
NC(=O)c1cnccn1 [Pyrazinamide],407000 nM,20420.3 µM,14781.6 µM,19695.5 µM,"toxicity call in iMPCCs / iHeps [1]: toxic; TC50 in MPCCs Albumin ([1]; human, 6 days): 33457.5 µM; Model predictions iCC (binary decision) [7]: −; toxicity call in iCCs [7]: non-toxic; DILI Sev (DILI severity scores from the LTKB of the FDA) [6]: 3"
